Measurements as given in patent publication US20130052137A1, “PARA AMINO BENZOIC ACID BASED NANOTUBES” (priority 2009, published 2013).

melting point [°C] | Structure (SMILES)
152 to 154 | CCCCCCCCCCCC(=O)Nc1ccc(C(=O)Nc2ccccn2)cc1 [Compound 1a, N-(Pyridine-2-yl)-4-dodecanamido-benzamide]
140 to 142 | CCCCCCCCCCCCCCCCCC(=O)Nc1ccc(C(=O)Nc2ccccn2)cc1 [Compound 1b, N-(Pyridin-2-yl)-4-stearamidobenzamide]
